This note sets out measurements from PMC4689404, “2-Benzazolyl-4-Piperazin-1-Ylsulfonylbenzenecarbohydroxamic Acids as Novel Selective Histone Deacetylase-6 Inhibitors with Antiproliferative Activity” (PLoS ONE, 2015).

Where two headings read alike, the source gives them in different places.

Assay [1] deals with T1, partially purified HDAC1 from mouse A20 cells (Mus musculus, UniProt O09106).
T1 construct: from mouse A20 cells was used as enzyme source; endogenous in cells; host or cells: mouse A20 cells
The assay can be described thus: HDAC1 activity assay, partially purified enzyme, [3H]acetate-prelabeled histones. It counts as biochemical. The text has this:
For inhibition assays, partially purified HDAC1 (70–80 fold enriched relative to crude samples) from mouse A20 cells was used as enzyme source. HDAC1 activity was purified by a combination of anion exchange chromatography (Mono Q), affinity chromatography (Poly-lysin agarose, Heparin Sepharose) and TSK size exclusion chromatography (Jesacher and Loidl, unpublished). HDAC1 protein was identified by immunoblotting using anti mouse HDAC1 antibodies (collaboration with Zymed Laboratories, Inc., San Francisco, California, USA). HDAC activity was determined as described by Sendra et al., [20] using [^3H]acetate-prelabeled chicken reticulocyte histones as substrate. 50 μL of mouse HDAC1 were incubated with different concentrations of compounds for 10 min on ice and 10 μL of total [^3H] acetate pre-labeled chicken reticulocyte histones (4 mg/mL) were added, resulting in a concentration of 41 μM. This mixture was incubated at 37°C for 1 h. The reaction was stopped by addition of 50 μL of 1 M HCl/0.4 M acetylacetate and 1 mL ethylacetate. After centrifugation at 10000 x g for 5 min an aliquot of 600 μL of the upper phase was counted for radioactivity in 3 mL liquid scintillation cocktail.

The test system of assay [2] is HBEC-30KT. The assay can be described thus: MTS viability assay. Particulars: Homo sapiens, 96 h, Patient A normal line, 4 days, read-out: Antiproliferative activity IC50, HBEC-30KT. It counts as cell-based, human. As for the experimental part:
(§1) Lung cancer cells (kindly provided by Dr. John D. Minna, [13, 21]) were maintained in RPMI 1640 media supplemented with 10% FBS. Immortalized normal human bronchial epithelial cells (also provided by Dr. John D. Minna) were cultured in KSFM supplemented with pituitary extract and EGF. For viability assays, cells were plated on 96 well plates and grown overnight. Cells were then exposed to increasing doses of the indicated compounds for 4 days and their viability assayed using the Promega Cell Titer 96 AQueous One kit per the manufacturer’s protocol. All doses were tested in 4–8 replicates. IC50 values were calculated using the in-house software DIVISA.

Assay [3] concerns HBEC-34KT. Briefly: MTS viability assay. The class given is cell-based, human. Particulars: Homo sapiens, 96 h, Patient B normal line, 4 days, read-out: Antiproliferative activity IC50, HBEC-34KT. The protocol: as §1
On the technique in general: Formazan colour is commonly taken as a measure of viable cells.

For assay [4], the system named is HCC4017. Briefly: MTS viability assay. It counts as cell-based, human. Particulars: for IC50: Homo sapiens, HCC4017, 96 h, Patient A cancer line, MTS, 4 days, read-out: Antiproliferative activity IC50, HCC4017; for Selectivity (HBEC-30KT vs HCC4017): Patient A. As for the experimental part:
(§2) Immortalized normal human bronchial epithelial cells (also provided by Dr. John D. Minna) were cultured in KSFM supplemented with pituitary extract and EGF. For viability assays, cells were plated on 96 well plates and grown overnight. Cells were then exposed to increasing doses of the indicated compounds for 4 days and their viability assayed using the Promega Cell Titer 96 AQueous One kit per the manufacturer’s protocol. All doses were tested in 4–8 replicates. IC50 values were calculated using the in-house software DIVISA.

For assay [5], the system named is HCC4018. Briefly: MTS viability assay. The class given is cell-based, human. The note with it: for IC50: Homo sapiens, 96 h, Patient B cancer line, MTS, 4 days, read-out: Antiproliferative activity IC50, HCC4018; for Selectivity (HBEC-34KT vs HCC4018): Patient B. As for the experimental part:
as §2

In assay [6] the target is T2, recombinant HDAC1 (Homo sapiens, UniProt Q13547).
T2 construct: purchased Epigenetek
Briefly: comparative HDAC inhibition assay (Millipore fluorometric kit). It counts as biochemical. Particulars: recombinant HDAC1, fluorometric substrate; Table 4. The protocol:
For the direct comparison of HDAC1 vs. HDAC6 inhibition, HDAC activity was analyzed using the HDAC Assay Kit from Millipore (17–356). Briefly, recombinant HDAC1 or recombinant HDAC6 (both purchased from Epigenetek, Purity of HDAC1 is more than 60% and purity HDAC6 is more than 85%). was incubated with the fluorometric HDAC substrate according to the manufacturer’s protocol in the presence of DMSO vehicle or increase compound doses. In a secondary activator reaction, the fluorophore is only cleaved from the deacetylated substrate, allowing for quantification. Fluorescence was quantified on a FLUOstar-Optima or a FLUOstar Omega plate reader (BMG Biosciences).

[7] abbreviates: Table 3, partially purified HDAC1, read-out: HDAC1 IC50.

T2 sequence (Q13547 whole entry): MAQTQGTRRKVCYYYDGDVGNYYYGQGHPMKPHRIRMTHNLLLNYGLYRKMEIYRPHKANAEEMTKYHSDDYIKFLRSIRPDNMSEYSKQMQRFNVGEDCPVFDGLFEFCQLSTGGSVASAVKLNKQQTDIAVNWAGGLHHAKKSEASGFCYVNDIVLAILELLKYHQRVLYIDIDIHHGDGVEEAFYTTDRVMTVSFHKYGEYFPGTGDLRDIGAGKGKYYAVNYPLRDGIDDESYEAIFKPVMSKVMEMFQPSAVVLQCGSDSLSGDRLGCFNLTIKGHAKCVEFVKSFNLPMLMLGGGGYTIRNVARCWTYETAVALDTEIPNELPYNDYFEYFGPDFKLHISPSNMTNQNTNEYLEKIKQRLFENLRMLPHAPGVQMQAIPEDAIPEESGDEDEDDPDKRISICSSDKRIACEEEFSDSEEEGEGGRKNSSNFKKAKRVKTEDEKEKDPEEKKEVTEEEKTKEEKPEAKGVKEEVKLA
T1 sequence (O09106 whole entry): as the sequence (Q13547 whole entry) above, with R8K, D399E, E424D counted along it

Turning to `O=C(NO)c1ccc(S(=O)(=O)N2CCN(c3nc4ccccc4o3)CC2)cc1` [Compound 9c, 4-(4-Benzoxazol-2-yl-piperazin-1-sulfonyl)-N -hydroxy-benzamid], the IC50 was 5.7 µM in assay [1] (setting [7]); above 10 µM in assay [2]; above 10 µM in assay [3]; 1.24 µM in assay [4]; 5.05 µM in assay [5]; 0.92 ± 0.16 µM in assay [6]. In addition, the “Selectivity (HBEC-30KT vs HCC4017)” value in assay [4] is recorded as above 8.06. For the same molecule, the “Selectivity (HBEC-34KT vs HCC4018)” value in assay [5] is above 1.98.
`O=C(NO)c1ccc(S(=O)(=O)N2CCN(c3nc4ccccc4s3)CC2)cc1` [Compound 9d, 4-(4-Benzothiazol-2-yl-piperazin-1-sulfonyl)-N -hydroxy-benzamid]: the IC50 in assay [1] (setting [7]) was found to be 4.8 µM; in assay [2], 5.37 µM; in assay [3], 8.22 µM; in assay [4] it was 1.63 µM; in assay [5], 4 µM; in assay [6], 0.9 ± 0.45 µM. Besides, the “Selectivity (HBEC-30KT vs HCC4017)” value in assay [4] stood at 3.29. In addition, the “Selectivity (HBEC-34KT vs HCC4018)” value in assay [5] worked out at 2.06.
On to `Cn1c(N2CCN(S(=O)(=O)c3ccc(C(=O)NO)cc3)CC2)nc2ccccc21` [Compound 9b, 4-[4-(1-methylbenzimidazol-2-yl)piperazin-1-yl]sulfonylbenzenecarbohydroxamic acid], for which the IC50 was 12.4 µM in assay [1] (setting [7]); around 12 µM in assay [1] (partially purified HDAC1 from mouse A20 cells, Fig 4 and text, read-out: HDAC1 Inhibit (IC50)); above 10 µM in assay [2]; above 10 µM in assay [3]; 1.49 µM in assay [4]; 6.1 µM in assay [5]. The IC50 in assay [6] was determined as 3.7 ± 1.7 µM. The “Selectivity (HBEC-30KT vs HCC4017)” value in assay [4] is given as above 6.71. Moreover, the “Selectivity (HBEC-34KT vs HCC4018)” value in assay [5] is above 1.64.

In general, IC50 refers to the concentration at which inhibition is half-maximal.
